Reference: patent publication US11564913B2, “Compositions and methods for treating cancer” (Children's Hospital Medical Center, priority 2019, dated 2023)

Test system: MDA-MB-231 cells
Test: Spheroid formation, hanging drop method
Type: cell-based, human
Conditions: before trituration
Procedure: FIG. 6: IODVA1 inhibits cell-substratum and cell-cell interactions. (A) IODVA1 impedes spreading of MCF7 and MDA-MB-231 cells on fibronectin. MCF7, T47D, and MDA-MB-231 cells were incubated on fibronectin coated coverslips for 10 min, then further incubated with the indicated concentrations of IODVA1 for 30 min in serum-free media, fixed and observed by bright field microscopy. Areas of single cells were calculated from 6 random fields (no less than 300 cells total per treatment group). Results shown are mean±s.e.m. of a single experiment and are representative of three independent experiments. (B) Effects of IODVA1 treatment on spheroid formation in MCF10A, MCF7, T47D, and MDA-MB-231 cells. […] Aggregates and spheroids were dissociated with accutase and trituration, and the number of live cells was determined by trypan blue exclusion. […]
Spheroids were formed by the hanging drop method or using ultra-low attachment (ULA) plates (Corning). […] Spheroid formation was monitored daily and imaged using EVOS microscope (Life Technologies). For assessment of attachment-free proliferation, the contents of the well were transferred into an Eppendorf tube, centrifuged at 100×g for 5 min, dissociated into a single cell suspension using trituration and Accutase (Invitrogen) treatment at room temperature and counted using trypan blue exclusion.

OC1(c2ccccn2)N=C(Nc2nc3ccccc3[nH]2)N=C1c1ccccn1 (stereo not shown) [IODVA1, (Z)-2-((1H-benzo[d]imidazol-2-yl)imino)-4,5-di(pyridin-2-yl)-2,5-dihydro-1H-imidazol-5-ol]
aggregate formation: not affected
